According to patent publication US20240342186A1, “PYRIDINE DERIVATIVES WITH N-LINKED CYCLIC SUBSTITUENTS AS cGAS INHIBITORS” (Boehringer Ingelheim International GmbH, priority 2021, published 2024):
pIC50: −log10 of the molar value.

Key:
[1] = tested on: cellular cGAS activity in dsDNA-stimulated human whole blood; test: Human whole blood assay (hWB IC50): IFNα2α production after dsDNA transfection; format: cell-based; conditions: inhibition of IFN induction in dsDNA-stimulated human whole blood
Procedure, shortened: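 Citrated blood from healthy donors preincubated 60 min at room temperature with compound (top 10 µM, ~1:5 steps, 0.1% DMSO), then transfected with dsDNA/Fugene and incubated 22 h at 37 °C. Plasma IFNα2α measured by MSD immunoassay; IC50 from 4-parameter fit of % control (stimulated vs unstimulated).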

cGAS = cGAS (Homo sapiens (Human), UniProt Q8N884); test: Human cGAS enzyme assay (hcGAS IC50, in vitro), cGAMP formation by RapidFire MS; format: biochemical; conditions: biochemical (in vitro) cGAS inhibition;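 further: enzyme activated by 45 bp dsDNA with GTP and ATP (30 µM each), 60 min compound pre-incubation then 90 min reaction, cGAMP relative to cyclic-di-GMP internal standard, 8-point dilutions up to 10 µM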
cGAS, sequence (Q8N884 whole entry): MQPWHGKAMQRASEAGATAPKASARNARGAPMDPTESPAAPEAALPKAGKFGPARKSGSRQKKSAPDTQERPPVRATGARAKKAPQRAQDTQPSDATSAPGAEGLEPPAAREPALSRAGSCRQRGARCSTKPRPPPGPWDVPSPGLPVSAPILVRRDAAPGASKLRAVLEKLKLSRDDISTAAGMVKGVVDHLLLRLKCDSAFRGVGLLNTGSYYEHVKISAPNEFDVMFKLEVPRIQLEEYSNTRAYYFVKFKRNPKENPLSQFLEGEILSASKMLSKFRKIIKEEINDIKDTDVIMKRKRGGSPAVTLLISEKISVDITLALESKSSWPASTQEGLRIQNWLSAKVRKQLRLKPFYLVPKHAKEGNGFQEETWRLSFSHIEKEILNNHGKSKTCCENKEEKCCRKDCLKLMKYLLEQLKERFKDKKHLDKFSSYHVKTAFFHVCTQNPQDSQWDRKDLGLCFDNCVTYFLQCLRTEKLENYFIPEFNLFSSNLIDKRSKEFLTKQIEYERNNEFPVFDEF

[2] = tested on: cellular cGAS activity in baculovirus-stimulated THP1-Dual cells (IRF dependent Lucia luciferase reporter); test: Human cGAS cell assay: inhibition of IFN induction in virus-stimulated THP1 cells (THP1(vir) IC50); format: cell-based; conditions: Homo sapiens, THP1-Dual; inhibition of IFN induction in virus-stimulated THP1 cells; read-out: THP1(vir) IC50
Procedure, shortened: (§1)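 THP1-Dual cells with IRF-dependent Lucia luciferase reporter, stimulated by empty baculovirus (dsDNA delivery activating cGAS) or, for the counter assay, directly by cGAMP. 5000 cells/well, 8 concentrations from 10 μM top, 1% DMSO, 18 h at 37 °C; luminescence read, IC50 by 4-parameter logistic fit versus unstimulated low control.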

[3] = tested on: cGAMP-stimulated THP1-Dual cells (pathway directly downstream of cGAS); test: cGAMP stimulated counter cell assay: inhibition of IFN induction in cGAMP-stimulated THP1 cells (THP1(cGAMP) IC50); format: cell-based, human; conditions: for IC50: Homo sapiens, THP1-Dual, inhibition of IFN induction in cGAMP-stimulated THP1 cells, read-out: THP1(cGAMP) IC50 (converted); for Ratio THP1(cGAMP) IC50 / THP1(vir) IC50: selectivity for cGAS inhibition
Procedure, shortened: as §1

| SMILES | pIC50 [1] | pIC50 (cGAS) | pIC50 [2] | IC50 [3] | Ratio THP1(cGAMP) IC50 / THP1(vir) IC50 [3] |
| --- | --- | --- | --- | --- | --- |
| C[C@H]1COCCN1c1cc(-c2ccncc2)cnc1O[C@H]1C[C@@H](C(=O)O)N(c2nc(C(F)(F)F)nc3c2oc2ccccc23)C1 [Example 3.01, (2S,4S)-4-({5-[(3S)-3-methylmorpholin-4-yl]-[3,4′-bipyridin]-6-yl}oxy)-1-[4-(trifluoromethyl)-8-oxa-3,5-diazatricyclo[7.4.0.0^2,7]trideca-1(9),2(7),3,5,10,12-hexaen-6-yl]pyrrolidine-2-carboxylic acid] | 5.79 | 8.05 | 6.01 | > 16600 nM | >17 |
| CNc1cc(-c2cnc(O[C@H]3C[C@@H](C(=O)O)N(c4nc(C(F)(F)F)nc5c4oc4ccccc45)C3)c(N3CCOC[C@@H]3C)c2)ccn1 [Example 3.02] | 5.81 | 7.89 | 6.51 | 4920 nM | 16 |
| C[C@H]1COCCN1c1cc(-c2ccncc2F)cnc1O[C@H]1C[C@@H](C(=O)O)N(c2nc(C(F)(F)F)nc3c2oc2ccccc23)C1 [Example 3.03] | 5.67 | 8.15 | 6.05 | 12800 nM | 14 |
| C[C@H]1COCCN1c1cc(-c2ccnc(C(F)F)c2)cnc1O[C@H]1C[C@@H](C(=O)O)N(c2nc(C(F)(F)F)nc3c2oc2ccccc23)C1 [Example 3.04] | 5.62 | 7.92 | 6.12 | 7780 nM | 10 |
| COc1cc(-c2cnc(O[C@H]3C[C@@H](C(=O)O)N(c4nc(C(F)(F)F)nc5c4oc4ccccc45)C3)c(N3CCOC[C@@H]3C)c2)ccn1 [Example 3.05] | 5.74 | 7.85 | 6.28 | 6710 nM | 13 |
| C[C@H]1COCCN1c1cc(-c2cnn(C)c2)cnc1O[C@H]1C[C@@H](C(=O)O)N(c2nc(C(F)(F)F)nc3c2oc2ccccc23)C1 [Example 3.06] | 5.70 | 8.05 | 6.28 | 21400 nM | 41 |
| CCn1cc(-c2cnc(O[C@H]3C[C@@H](C(=O)O)N(c4nc(C(F)(F)F)nc5c4oc4ccccc45)C3)c(N3CCOC[C@@H]3C)c2)cn1 [Example 3.07] | 5.79 | 7.77 | 6.13 | 12300 nM | 16 |
| CNc1cc(-c2cnc(O[C@H]3C[C@@H](C(=O)O)N(c4nc(C(F)F)nc5c4oc4ccccc45)C3)c(N3CCOC4(COC4)[C@@H]3C)c2)ccn1 [Example 3.08] | 8.52 | 8.30 | 8.40 | 4790 nM | 1179 |
| CNc1cc(-c2cnc(O[C@H]3C[C@@H](C(=O)O)N(c4nc(C(F)(F)F)nc5c4oc4ccccc45)C3)c(N3CCOC4(COC4)[C@@H]3C)c2)ccn1 [Example 3.09] | 8.10 | 8.05 | 8.10 | 4820 nM | 585 |
| CC(=O)Nc1ccc(-c2cnc(O[C@H]3C[C@@H](C(=O)O)N(c4nc(C(F)(F)F)nc5c4oc4ccccc45)C3)c(N3CCOC4(COC4)[C@@H]3C)c2)cn1 [Example 3.10] | 8.00 | 8.10 | 8.30 | 7910 nM | 1713 |
| C[C@@H]1N(c2cc(-c3cccc(CO)c3)cnc2O[C@H]2C[C@@H](C(=O)O)N(c3nc(C(F)F)nc4c3oc3ccccc34)C2)CCOC12COC2 [Example 3.11] | 7.96 | 8.40 | 8.30 | 5290 nM | 1149 |
| CNc1cccc(-c2cnc(O[C@H]3C[C@@H](C(=O)O)N(c4nc(C(F)(F)F)nc5c4oc4ccccc45)C3)c(N3CCOC4(COC4)[C@@H]3C)c2)c1 [Example 3.12] | 7.72 | 8.05 | 8.22 | 11100 nM | 1930 |
| C[C@@H]1N(c2cc(-c3cccc(C(N)=O)c3)cnc2O[C@H]2C[C@@H](C(=O)O)N(c3nc(C(F)(F)F)nc4c3oc3ccccc34)C2)CCOC12COC2 [Example 3.13] | 7.19 | 8.05 | 7.60 | 8350 nM | 335 |
| COc1ncccc1-c1cnc(O[C@H]2C[C@@H](C(=O)O)N(c3nc(C(F)(F)F)nc4c3oc3ccccc34)C2)c(N2CCOC3(COC3)[C@@H]2C)c1 [Example 3.14] | 7.59 | 7.96 | 8.00 | 7830 nM | 822 |
| CC(=O)Nc1cc(-c2cnc(O[C@H]3C[C@@H](C(=O)O)N(c4nc(C(F)F)nc5c4oc4ccccc45)C3)c(N3CCOC4(COC4)[C@@H]3C)c2)ccn1 [Example 3.15] | 7.66 | 8.00 | 7.24 | 19900 nM | 348 |
| CSc1cc(-c2cnc(O[C@H]3C[C@@H](C(=O)O)N(c4nc(C(F)F)nc5c4oc4ccccc45)C3)c(N3CCOC4(COC4)[C@@H]3C)c2)ccn1 [Example 3.16, (2S,4S)-1-[4-(difluoromethyl)-8-oxa-3,5-diazatricyclo-[7.4.0.0^2.7]trideca-1(9),2(7),3,5,10,12-hexaen-6-yl]-4-({5-[(9S)-9-methyl-2,5-dioxa-8-azaspiro[3.5]nonan-8-yl]-2′-(methylsulfanyl)-[3,4′-bipyridin]-6-yl}oxy)-pyrrolidine-2-carboxylic acid] | 7.42 | 7.82 | 7.72 | 11800 nM | 629 |

More lines, main results first:

| pIC50 [1] | pIC50 (cGAS) | pIC50 [2] | SMILES | IC50 [3] | Ratio THP1(cGAMP) IC50 / THP1(vir) IC50 [3] |
| --- | --- | --- | --- | --- | --- |
| 7.37 | 7.70 | 7.96 | C[C@@H]1N(c2cc(-c3cccc(N(C)C)c3)cnc2O[C@H]2C[C@@H](C(=O)O)N(c3nc(C(F)(F)F)nc4c3oc3ccccc34)C2)CCOC12COC2 [Example 3.17] | 16800 nM | 1542 |
| 7.36 | 8.52 | 8.15 | CNc1cncc(-c2cnc(O[C@H]3C[C@@H](C(=O)O)N(c4nc(C(F)(F)F)nc5c4oc4ccccc45)C3)c(N3CCOC4(COC4)[C@@H]3C)c2)c1 [Example 3.18] | 4760 nM | 645 |
| 7.33 | 8.10 | 6.57 | C[C@@H]1N(c2cc(-c3cccc(CN)c3)cnc2O[C@H]2C[C@@H](C(=O)O)N(c3nc(C(F)F)nc4c3oc3ccccc34)C2)CCOC12COC2 [Example 3.19] | > 16600 nM | >62 |
| 7.30 | 8.52 | 7.52 | C[C@@H]1N(c2cc(-c3cn(C)cn3)cnc2O[C@H]2C[C@@H](C(=O)O)N(c3nc(C(F)(F)F)nc4c3oc3ccccc34)C2)CCOC12COC2 [Example 3.20] | 11500 nM | 383 |
| 7.26 | 8.40 | 7.62 | C[C@@H]1N(c2cc(-c3ccnc(C#N)c3)cnc2O[C@H]2C[C@@H](C(=O)O)N(c3nc(C(F)F)nc4c3oc3ccccc34)C2)CCOC12COC2 [Example 3.21] | 11700 nM | 483 |
| 7.15 | 7.80 | 6.75 | CNCc1cccc(-c2cnc(O[C@H]3C[C@@H](C(=O)O)N(c4nc(C(F)(F)F)nc5c4oc4ccccc45)C3)c(N3CCOC4(COC4)[C@@H]3C)c2)c1 [Example 3.22] | 8910 nM | 50 |
| 7.15 | 8.10 | 8.00 | C[C@@H]1N(c2cc(-c3ccc(C#N)nc3)cnc2O[C@H]2C[C@@H](C(=O)O)N(c3nc(C(F)(F)F)nc4c3oc3ccccc34)C2)CCOC12COC2 [Example 3.23] | 10000 nM | 1029 |
| 6.49 | 8.22 | 7.24 | C[C@@H]1N(c2cc(-c3cccc(C(N)=O)c3)cnc2O[C@H]2C[C@@H](C(=O)O)N(c3nc(C(F)F)nc4c3oc3ccccc34)C2)CCOC12COC2 [Example 3.24] | 19200 nM | 336 |
| 7.02 | 8.05 | 7.72 | COc1cc(-c2cnc(O[C@H]3C[C@@H](C(=O)O)N(c4nc(C(F)(F)F)nc5c4oc4ccccc45)C3)c(N3CCOC4(COC4)[C@@H]3C)c2)c(F)cn1 [Example 3.25] | 9710 nM | 502 |
| 5.86 | 7.96 | 7.32 | C[C@@H]1N(c2cc(-c3cncc(Cl)c3)cnc2O[C@H]2C[C@@H](C(=O)O)N(c3nc(C(F)(F)F)nc4c3oc3ccccc34)C2)CCOC12COC2 [Example 3.26] | 9240 nM | 193 |
| 5.73 | 7.68 | 6.49 | Cc1noc(C)c1-c1cnc(O[C@H]2C[C@@H](C(=O)O)N(c3nc(C(F)(F)F)nc4c3oc3ccccc34)C2)c(N2CCOC3(COC3)[C@@H]2C)c1 [Example 3.27] | 12500 nM | 38 |
